Reference: patent US6303596A, “Use of taurolidine for treatment of leukemias” (priority 2000, dated 2001)
Values joined by “and” are separate entries in the source; they are usually repeats but may differ in a detail not shown here. Equal values may be shown once.

Experiments:
Jurkat = assay: TUNEL / propidium iodide flow cytometry, Jurkat; type: cell-based, human; details: taurolidine 100 μg/ml or anisomycin 1 μg/ml for 4 h, assayed at 6 hours, mean ± SD
Protocol: (§1) In the second method, DNA fragmentation was detected via TUNEL assay according to the manufacturer's instructions. With this methodology, 2×10^6 cells were fixed with 2% paraformaldehyde, permeabilized with 0.1% Triton X-100/0.1% citrate, incubated at 37° C. with terminal deoxynucleotidyl transferase and FITC-dUTP, rinsed and analyzed by flow cytometry. Enhanced FITC signal indicates apoptosis-specific DNA fragmentation. Gavriali, et al, "Identification of programmed cell death in situ via specific labeling of nuclear DNA fragmentation," J Cell Biol 119:493 (1992). Parallel aliquots of unfixed cells were treated with PI and FITC-conjugated anti-CD14 and analyzed by flow cytometry, in order to identify cells with permeable cell membranes (since PI binds to DNA but is excluded from cells with intact plasma membranes) and also to determine the cell-specificity of the apoptotic signal.
(§2) In another study, TUNEL assays were performed on all cell lines 6 hours after cells were initially exposed to taurolidine (cells were treated for 4 hours, rinsed, and then incubated for 2 more hours before TUNEL assay was performed).
(§3) . Taurolidine and anisomycin induced apoptosis in MM6, HL-60, and Jurkat cells (Table VIII). MM6 and HL-60 cells were similarly effected, with >80% TUNEL-positive cells after 6 hours. […]
(§4) Data are percent of total cell-size events, and are expressed as mean ± […]

K562 = assay: TUNEL / propidium iodide flow cytometry, K562; type: cell-based, human; details: taurolidine 100 μg/ml or anisomycin 1 μg/ml for 4 h, mean ± SD
Protocol: as §1, §2
(§5) . Taurolidine and anisomycin induced apoptosis in MM6, HL-60, and Jurkat cells (Table VIII). MM6 and HL-60 cells were similarly effected, with >80% TUNEL-positive cells after 6 hours. Jurkat cells were less sensitive, with approximately 50% of cells induced to undergo apoptosis after taurolidine treatment. After 6 hours, 73% of anisomycin-treated REH cells were apoptotic, with less than 20% of taurolidine-treated REH cells being TUNEL-positive. However, assay of cells 24 hours after
(§6) ^a Analysis by flow cytometry after staining cells with propidium
(§7) iodide and processing for TUNEL.
(§8) Data are percent of total cell-size events, and are expressed as mean ±
(§9) Cells were treated for 4 hours with taurolidine (100 μg/ml) or
(§10) anisomycin (1 μg/ml), and then assayed at 6 hours.
(§11) Data are percent of total cell-sized events, and are expressed as mean ±
(§12) anisomycin (1 μg/ml), and then assayed at 24 hours.

MM6 = assay: TUNEL / propidium iodide flow cytometry, MM6; type: cell-based, human; details: MM6; taurolidine 100 μg/ml or anisomycin 1 μg/ml for 4 h, assayed at 6 hours; mean ± SD
Protocol: as §1
(§13) Consequently, TUNEL analysis was performed on PBMC at 3, 6, or 24 hours after treatment with 25 to 100 μg/ml taurolidine. Aliquots of harvested cells were also labeled with FITC-conjugated anti-CD14 antibodies and PI, which allowed identification of monocytes (CD14-positive cells) and cells with damaged cell membranes (PI-positive cells). […] Thus, nearly 75% of the monocytes were TUNEL-positive following treatment with 100 μg/ml taurolidine for six hours. Confirmation that the TUNEL-positive cells were monocytes was obtained by staining with FITC-conjugated anti-CD14.
as §2, §5, §6, §7, §8, §9, §10

Monocytes = assay: tissue or blood; type: cell-based, human
Protocol: (§14) FIGS. 15A, 15B, and 15C depict TUNEL analysis of PBMC treated with taurolidine in whole blood, for control cells, taurolidine-treated cells, and anisomycin-treated cells, respectively . Cells were incubated with 500 μg/ml taurolidine for 4 hours, resuspended in fresh medium, incubated for two hours further and processed for TUNEL analysis. Parallel samples were stained with FITC-conjugated anti-CD14 and PI as described herein. Ten thousand events were recorded per sample. TUNEL signal (x -axis) is a measure of DNA fragmentation, while FSC (y-axis) is related to cell size. TUNEL-negative lymphocytes are bounded by rectangle R 1, while TUNEL-negative monocytes (CD 14 positive cells) are bounded by rectangle R2. R3 bounds the TUNEL-positive population of cells. There were minimal numbers of PI-positive cells in 6 hour samples (see Table VI).
as §1
(§15) Taurolidine at 100 μg/ml induced apoptosis of approximately 75% of purified peripheral blood monocytes when these cells were incubated in culture medium. However, in order to more closely mimic the milieu of leukocytes in vivo, induction of apoptosis in PBMC by taurolidine was studied in whole blood (anticoagulated with heparin). As before, apoptosis was quantitated by measuring the loss of monocytes from a TUTNEL-negative (no DNA fragmentation), CD 14 positive population of cells which was concomitant with the appearance of a TUNEL-positive population of cells. Treatment of PBMC in whole blood resulted
(§16) in a shift of the taurolidine dose-response curve. […] As a positive control for induction of apoptosis, some cells were treated with anisomycin, a protein synthesis inhibitor known to induce apoptosis in monocytes.
(§17) ^a Analysis by flow cytometry after staining cells with PI and
(§18) processing for TUNEL. Data are mean ± SD of 2 experiments.
(§19) ^b Percent of cells present in the TUNEL-negative region in control

Lymphocytes = assay: tissue or blood; type: cell-based, human; details: whole blood
Protocol: as §14, §1, §15, §16, §17, §18, §19

ECV304 = assay: TUNEL / propidium iodide flow cytometry, ECV304; type: cell-based, human; details: ECV304; taurolidine 100 μg/ml or anisomycin 1 μg/ml for 4 h, assayed at 6 hours; mean ± SD
Protocol: as §1, §2, §3, §4

HL-60 = assay: TUNEL / propidium iodide flow cytometry, HL-60; type: cell-based, human; details: HL-60; taurolidine 100 μg/ml or anisomycin 1 μg/ml for 4 h, assayed at 6 hours; mean ± SD
Protocol: as §1, §13, §2, §5, §6, §7, §8, §9, §10

GM5387 = assay: TUNEL / propidium iodide flow cytometry, GM5387; type: cell-based, human; details: GM5387; taurolidine 100 μg/ml or anisomycin 1 μg/ml for 4 h, assayed at 6 hours; mean ± SD
Protocol: as §1, §2, §3, §4

REH = assay: TUNEL / propidium iodide flow cytometry, REH; type: cell-based, human; details: taurolidine 100 μg/ml or anisomycin 1 μg/ml for 4 h, mean ± SD
Protocol: as §1, §2, §5, §6, §7, §8, §9, §10, §11, §12

TNFα = assay: LPS-induced TNFα expression/secretion by MM6 cells, ELISA; type: cell-based, human; details: MM6, taurine 44 μg/ml
Protocol: FIG. 3A and FIG. 3B are graphs depicting taurolidine inhibition of LPS-induced alpha […] (TNFα) expression by monocytic cells as determined by assay procedures. FIG. 3A represents MM6 cells; FIG. 3B represents PBMC. The cells were induced with LPS (hatched bars: 100 ng/ml LPS in RPMI+10% BCS; solid bars: 10 ng/ml in AIM-V+0.01% BCS) in the presence of varying concentrations of taurolidine. After four hours, cell supernatants were collected for TNFα ELISA. Data are expressed as percent of TNFα levels measured in cell cultures treated with LPS alone (no taurolidine or vehicle). Experiments were performed with duplicate samples and were repeated at least three times. Values shown in FIG. 3A are from a representative experiment. Values shown in FIG. 3B are mean±SEM of three experiments.
(§20) All cells were cultured in a 5% CO2 atmosphere at 37° C. MM6 cells were grown in RPMI supplemented with 10% BCS, 2 mM L-glutamine, and 50 μg/ml gentamicin (RPMI+10% BCS). In some experiments, MM6 cells were rinsed once with HBSS without Ca^++ or Mg^++ and once with AIM-V before finally being resuspended in AIM-V supplemented with 0.01% BCS (AIM-V+0.01% BCS). […] AIM-V was supplemented with a low amount of BCS (0.01%) in order to provide a source of LPS-binding protein, which enhances the response of monocytic cells to LPS. Ulevitch, R. J. and Tobias, P. S., "Recognition of endotoxin by cells leading to transmembrne signaling," Curr Opin Immunol 6:125 (1994). HL-60, REH, and Jurkat were cultured in RPMI supplemented with 10% heat inactivated fetal bovine serum (FBS), 2 mM L-glutamine, and 50 μg/ml gentamicin. ECV304 were cultured in M199 supplemented with 10% FBS, mM L-glutamine, and 50 μg/ml gentamicin. GM5387 was cultured in MEM supplemented with 20% FBS, 2 mM L-glutamine, and 50 μg/ml gentamicin.
For induction of TF or TNFα expression, MM6 cells or PBMC were cultured either in RPMI supplemented with 10% BCS or in AIM-V+0.01% BCS, and stimulated by adding LPS to final concentrations of 10 to 100 ng/ml. […]

tissue factor (TF) = assay: LPS-induced tissue factor (TF) expression in MM6 cells, ELISA; type: cell-based, human; details: MM6, taurine up to 0.5 mg/ml
Protocol: FIG. 2A represents MM6 cells; FIG. 2B represents PBMC. The cells were induced with LPS (hatched bars: 100 ng/ml LPS in RPMI supplemented with 10% BCS (RPMI+10% BCS); solid bars: 10 ng/ml in AIM-V+0.01% BCS) in the presence of varying concentrations of taurolidine,or with a dilution of the vehicle equivalent to that given to cells receiving 100 μg/ml taurolidine. After four hours, cells were collected and lysates were prepared for TF ELISA. Data are expressed as percent of TF antigen measured in cells treated with LPS alone (no taurolidine or vehicle). Experiments were performed with duplicate samples and were repeated at least three times. Values shown are mean±SEM of all experiments.
as §20, with “Ulevitch, R. J. and Tobias, P. S., "Recognition of endotoxin by cells leading to transmembrne signaling," Curr Opin Immunol 6:125 (1994).” left out
For induction of TF or TNFα expression, MM6 cells or PBMC were cultured either in RPMI supplemented with 10% BCS or in AIM-V+0.01% BCS, and stimulated by adding LPS to final concentrations of 10 to 100 ng/ml. […] Except as noted, taurolidine and LPS were added to the cell cultures simultaneously. For TF determination, cells and culture media together were treated by adding Triton X-100 (1% final) and EDTA (7 mmol/L final), and the resulting lysates assayed by ELISA. […] For TNFα determination, cells were removed by centrifugation for 5 min at 250×g, and the supernatants were assayed by ELISA.

human blood monocytes = details: cited from earlier work

## COc1ccc(C[C@H]2NC[C@H](O)[C@H]2OC(C)=O)cc1 [anisomycin]
Jurkat
  % TUNEL-positive: 69.6 ± 19.8%
  % propidium iodide positive: 5.1 ± 3.4%
K562; assayed at 6 hours
  % propidium iodide positive: 4.8 ± 3.1%
K562; assayed at 24 hours
  % TUNEL-positive: 2.2 ± 6.2%
  % propidium iodide: 7.1 ± 2.3%
K562; assayed at 24 hours, listed as Anisomycin
  % TUNEL-positive: less than 10%
MM6
  % TUNEL-positive: > 80% and 92.0 ± 2.3%
  % propidium iodide positive: 19.1 ± 5.4%
Monocytes; PBMC in whole blood
  TUNEL-negative monocytes after anisomycin: loss of TUNEL-negative monocytes
Monocytes; whole blood, 6 hour incubation, versus taurolidine
  TUNEL-positive cells after anisomycin: fewer TUNEL-positive cells
Lymphocytes
  induction of apoptosis in lymphocytes: no evidence for a significant effect
ECV304
  % propidium iodide positive: 2.2 ± 3.1%
HL-60
  % TUNEL-positive: > 80% and 96.1 ± 6.8%
  % propidium iodide positive: 28.3 ± 15.3%
GM5387
  % propidium iodide positive: 5.4 ± 3.2%
REH; assayed at 6 hours
  % TUNEL-positive: 73% and 72.9 ± 7.4%
  % propidium iodide positive: 18.4 ± 0.5%
REH; assayed at 24 hours
  % TUNEL-positive: 53.0 ± 2.6%
  % propidium iodide: 51.6 ± 17.0%

## NCCS(=O)(=O)O [taurine]
TNFα
  effect on TNFα expression: no effect on TNFα expression
Tissue factor (TF)
  effect on TF expression: no effect on TF expression

B1: IL-4: anti-inflammatory cytokine IL-4 (protein, UniProt P05112 25-153, looked up)
Interleukin-4: HKCDITLQEIIKTLNSLTEQKTLCTELTVTDIFAASKNTTEKETFCRAATVLRQFYSHHEKDTRCLGATAQQFHRHKQLIRFLKRLDRNLWGLAGLNSCPVKEANQSTLENFLERLKTIMREKYSKCSS
Human blood monocytes
  effect on apoptosis in LPS-stimulated monocytes: can enhance apoptosis
